The values that follow come from patent US20210009549A1, “CANNABINOID DERIVATIVES AND CONJUGATES AND USES THEREOF” ([…] LTD., priority 2018, published 2021).

One data set concerns the target T1, human α1 GlyR (Homo sapiens, UniProt P23415).
T1 construct: expressed in transfected cells
T1 sequence (P23415 29-457): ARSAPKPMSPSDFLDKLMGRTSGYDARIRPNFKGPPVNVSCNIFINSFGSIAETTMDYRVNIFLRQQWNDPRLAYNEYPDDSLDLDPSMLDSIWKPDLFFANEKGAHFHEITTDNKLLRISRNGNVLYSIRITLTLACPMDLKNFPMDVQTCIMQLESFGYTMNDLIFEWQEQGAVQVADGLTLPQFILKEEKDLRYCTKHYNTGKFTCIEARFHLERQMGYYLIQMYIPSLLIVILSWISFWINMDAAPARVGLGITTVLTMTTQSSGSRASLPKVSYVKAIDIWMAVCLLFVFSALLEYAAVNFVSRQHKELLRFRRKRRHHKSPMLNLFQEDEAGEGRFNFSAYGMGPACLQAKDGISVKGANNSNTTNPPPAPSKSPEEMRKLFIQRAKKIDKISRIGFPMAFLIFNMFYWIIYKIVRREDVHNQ
Briefly: Whole-cell patch clamp, modulation of α1 GlyR-regulated ion channel currents. The class given is cell-based. Conditions: HEK293 cells stably expressing human α1 GlyR; EC2 glycine (1 μM); holding potential −40 mV; room temperature. Here is the method: (§1) Currents were recorded by whole-cell patch clamp on HEK293 cells that stably expressed either the human α1 or α3 GlyRs. Cells were cultured on glass coverslips and placed into the recording chamber which was perfused by the standard extracellular solution containing (in mM): 140 NaCl, 5 KCl, 2 CaCl2), 1 MgCl2, 10 HEPES/NaOH and 10 glucose (pH 7.4 adjusted with NaOH). For HEK293 cell recordings we employed an intracellular solution consisting of (mM): 145 CsCl, 2 CaCl2), 2 MgCl2, 10 HEPES and 10 EGTA (pH 7.4 adjusted with CsOH; osmolarity 290 mOsm). HEK293 cell recordings were performed at a holding potential of −40 mV. Solutions were applied to cells via gravity induced perfusion via parallel microtubules under micromanipulator control with a solution exchange time of <250 ms. Experiments were conducted at room temperature (20-22° C.). Due to the irreversible nature of the drug actions, only one cell was tested per coverslip.
(§2) Patch pipettes were fabricated from borosilicate hematocrit tubing (Hirschmann Laborgerate, Eberstadt, Germany) and heat polished. Pipettes had tip resistances of […]. Membrane currents were recorded using an Axopatch 200B amplifier and a Digidata 1440 analog-to-digital converter under control of pClamp10 software (Molecular Devices). Currents were filtered at 500 Hz and digitized at 2 KHz.
(§3) After a stable whole cell recording was obtained, EC2 and saturating glycine concentrations activated currents with the anticipated magnitudes were verified. At al and α3 GlyRs, EC2 current magnitudes generally required glycine concentrations of 1 and 80 μM, respectively. The saturating concentration was invariably 2 mM. The standard experimental protocol involved EC2 glycine application for […] every 1 minute. When glycine was not being applied, the cells were continually and directly exposed to flowing drug solution. After 5 minutes of alternate applications of drug and EC2 glycine, 2 mM glycine was briefly applied every 2 minutes. Regular applications of saturating glycine after the 5 minute time point tended to enhance the drug-induced current magnitude effect further.
(§4) The effects of cannabinoid derivatives on al GlyR and α3 GlyR-regulated ion channel currents, as assessed by the patch clamp method, are indicated in Table 6.

The conditions of data set [1]: rodents; systemic and intrathecal administration; cited from earlier work.
In a further data set the target is T2, human α3 GlyR (Homo sapiens, UniProt O75311).
T2 construct: expressed in transfected cells
T2 sequence (O75311 34-464): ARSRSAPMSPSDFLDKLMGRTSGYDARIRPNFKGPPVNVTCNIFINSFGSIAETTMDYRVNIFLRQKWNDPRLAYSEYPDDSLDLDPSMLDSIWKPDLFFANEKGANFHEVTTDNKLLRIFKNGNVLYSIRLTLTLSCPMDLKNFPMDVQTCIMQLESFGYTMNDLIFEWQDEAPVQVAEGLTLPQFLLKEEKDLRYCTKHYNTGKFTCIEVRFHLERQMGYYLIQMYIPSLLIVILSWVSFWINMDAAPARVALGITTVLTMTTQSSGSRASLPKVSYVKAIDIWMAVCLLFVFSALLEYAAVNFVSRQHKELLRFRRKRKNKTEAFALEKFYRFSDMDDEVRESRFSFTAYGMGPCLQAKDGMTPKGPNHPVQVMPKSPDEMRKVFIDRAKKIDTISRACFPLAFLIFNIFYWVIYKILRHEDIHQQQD
Briefly: Whole-cell patch clamp, modulation of α3 GlyR-regulated ion channel currents. Conditions: for A3 GlyR (fold increase): HEK293 cells stably expressing human α3 GlyR, EC2 glycine (80 μM), holding potential −40 mV, room temperature. The class given is cell-based. Here is the method: as §1, §2, §3, §4

In the next data set the test system is hippocampal neurons. Conditions: cited from earlier work.
Another data set concerns presynaptic GlyR. The following applies: brainstem and spinal cord of hyperekplexic mutant mice; cited from earlier work.

Turning to 7-OH-Desoxy-CBD [Compound 119], the “α1 GlyR (fold increase)” value at human α1 GlyR is “no effect”.

Turning to `C=C(C)[C@@H]1CCC(C)=C[C@H]1c1c(O)cc(CCCCC)cc1O` [CBD, cannabidiol], in data set [1], the Analgesic tolerance entry is given as “without causing apparent analgesic tolerance”; the “Suppression of chronic inflammatory and neuropathic pain” value is “significantly suppresses chronic inflammatory and neuropathic pain”.

`C=C(C)C1CCC(C)=CC1c1ccc(C(C)(C)CCCCCC)cc1O` (stereo not drawn) [Compound 101, 1,1-dimethylheptyl desoxy CBD]: on human α3 GlyR, the “A3 GlyR (fold increase)” value is on record as 5 fold. Moreover, the “α1 GlyR (fold increase)” value at human α1 GlyR is recorded as 13 fold.

Take `C=C(C)C1CCC(C)=CC1c1ccc(C(C)C(C)CCCCC)cc1O` (stereo not drawn) [Compound 102, 1,2-dimethylheptyl-desoxy CBD]: the “A3 GlyR (fold increase)” value on human α3 GlyR turned out to be 18 fold. The “Selectivity α3 GlyR versus α1 GlyR” value at human α3 GlyR (comparison of patch clamp effects on α1 and α3 GlyR) is “highly selective towards α3 GlyR”. Further, the “α1 GlyR (fold increase)” value on human α1 GlyR was “no effect”.

Take `C=C(C)C1CCC(C)=CC1c1ccc(C(C)(C)CCC)cc1O` (stereo not drawn) [Compound 103, 1,1-dimethylbutyl desoxy CBD]: the “A3 GlyR (fold increase)” value on human α3 GlyR is 10 fold. Further, on human α1 GlyR, the “α1 GlyR (fold increase)” value amounted to 4 fold.

On to `CCCCCCC(C)(C)c1ccc2c(c1)OC(C)(C)C1CCC(C)=CC21` (stereo not drawn) [Compound 148, 1,1-DMH-desoxy THC], for which the “A3 GlyR (fold increase)” value at human α3 GlyR worked out at 4 fold. Also, the “α1 GlyR (fold increase)” value at human α1 GlyR amounted to 4.2 fold.

Turning to `C=C(C)[C@@H]1CCC(C)=C[C@H]1c1c(O)cc(CC2CN(C(C)=O)C2)cc1O` [KLS-13019], the “Potency relative to CBD” value in the data set on hippocampal neurons (more potent than CBD) is given as 50 fold. Moreover, in the data set with hippocampal neurons (safer than CBD), the “Safety relative to CBD” value is recorded as above 400 fold.

On to `C=C(C)[C@@H]1CCC(C)=C[C@H]1c1ccc(CCCCC)cc1O` [desoxy-CBD, dehydroxylcannabidiol], for which the “Rescue of impaired presynaptic GlyR activity and diminished glycine release” value with presynaptic GlyR was “selectively rescues impaired presynaptic GlyR activity and diminished glycine release”. Also, the “A3 GlyR (fold increase)” value on human α3 GlyR is recorded as 4.6 fold. Moreover, the “α1 GlyR (fold increase)” value at human α1 GlyR is recorded as 26.7 fold. For the same compound, in data set [1], the Analgesic tolerance entry is on record as “without causing apparent analgesic tolerance”; the “Suppression of chronic inflammatory and neuropathic pain” value was “significantly suppresses chronic inflammatory and neuropathic pain”.

Take `CCCCCc1ccc2c(c1)OC(C)(C)C1CCC(C)=CC21` (stereo not drawn) [desoxy-THC]: the “A3 GlyR (fold increase)” value on human α3 GlyR is recorded as 4.7 fold. Further, the “α1 GlyR (fold increase)” value on human α1 GlyR was determined as 11.2 fold.
